Measurements from patent US20150307520A1, “NOVEL HETEROARYL AND HETEROCYCLE COMPOUNDS, COMPOSITIONS AND METHODS THEREOF” (HUTCHISON MEDIPHARMA LIMITED, priority 2012, published 2015).

Tests used:
Format in all cases: biochemical
[1] = biological target: p110δ/p85α (Homo sapiens, UniProt O00329); experiment: Transcreener KINASE Assay, kinase inhibition of p110δ/p85α; settings: for PI3Kδ IH % @ 1 uM: 1 uM test compound; for IC50: read-out: PI3Kδ IC50
Procedure: (§1) PI3K kinases including p110α/p85α, p110δ/p85α and p110γ are purchased from Invitrogen, and p110β/p85α is from Millipore.
(§2) Primary screening data and IC50 values are measured using Transcreener™ KINASE Assay (Bellbrook, Catalog #3003-10K). […] It is a universal, homogenous, high throughput screening (HTS) technology using a far-red, competitive fluorescence polarization immunoassay based on the detection of ADP to monitor the activity of enzymes that catalyze group transfer reactions. Briefly, the Transcreener KINASE Assay is designed as a simple two-part, endpoint assay.
(§3) In the first step, the 25 ul kinase reaction is performed by preparing a reaction mixture containing 5 ul test compound (2% DMSO final concentration), 10 ul kinase, buffer (50 mM HEPES, 100 mM NaCl, 1 mM EGTA, 0.03% CHAPS, 3 mM MgCl2, and freshly supplemented 1 mM DTT), and 10 ul 30 uM PIP2/10 uM ATP. The plate is sealed and incubated for 80 min at room temperature. Next, 25 ul ADP detection mix is added per well. The plate is sealed again and incubated for 60 min at room temperature, and then measure fluorescence polarization by Tecan Infinite F500 Reader.
(§4) Data is analyzed and IC50s are generated using the add-in software for Microsoft Excel, Xlfit™ (version 2.0). IH %=(ADP amount under 2% DMSO-ADP amount under test compound)/ADP amount under 2% DMSO.

[2] = biological target: p110γ (Homo sapiens, UniProt P48736); experiment: Transcreener KINASE Assay, kinase inhibition of p110γ; settings: for PI3Kγ IH % @ 1 uM: 1 uM test compound; for IC50: read-out: PI3Kγ IC50
Chain of p110γ (P48736 whole entry): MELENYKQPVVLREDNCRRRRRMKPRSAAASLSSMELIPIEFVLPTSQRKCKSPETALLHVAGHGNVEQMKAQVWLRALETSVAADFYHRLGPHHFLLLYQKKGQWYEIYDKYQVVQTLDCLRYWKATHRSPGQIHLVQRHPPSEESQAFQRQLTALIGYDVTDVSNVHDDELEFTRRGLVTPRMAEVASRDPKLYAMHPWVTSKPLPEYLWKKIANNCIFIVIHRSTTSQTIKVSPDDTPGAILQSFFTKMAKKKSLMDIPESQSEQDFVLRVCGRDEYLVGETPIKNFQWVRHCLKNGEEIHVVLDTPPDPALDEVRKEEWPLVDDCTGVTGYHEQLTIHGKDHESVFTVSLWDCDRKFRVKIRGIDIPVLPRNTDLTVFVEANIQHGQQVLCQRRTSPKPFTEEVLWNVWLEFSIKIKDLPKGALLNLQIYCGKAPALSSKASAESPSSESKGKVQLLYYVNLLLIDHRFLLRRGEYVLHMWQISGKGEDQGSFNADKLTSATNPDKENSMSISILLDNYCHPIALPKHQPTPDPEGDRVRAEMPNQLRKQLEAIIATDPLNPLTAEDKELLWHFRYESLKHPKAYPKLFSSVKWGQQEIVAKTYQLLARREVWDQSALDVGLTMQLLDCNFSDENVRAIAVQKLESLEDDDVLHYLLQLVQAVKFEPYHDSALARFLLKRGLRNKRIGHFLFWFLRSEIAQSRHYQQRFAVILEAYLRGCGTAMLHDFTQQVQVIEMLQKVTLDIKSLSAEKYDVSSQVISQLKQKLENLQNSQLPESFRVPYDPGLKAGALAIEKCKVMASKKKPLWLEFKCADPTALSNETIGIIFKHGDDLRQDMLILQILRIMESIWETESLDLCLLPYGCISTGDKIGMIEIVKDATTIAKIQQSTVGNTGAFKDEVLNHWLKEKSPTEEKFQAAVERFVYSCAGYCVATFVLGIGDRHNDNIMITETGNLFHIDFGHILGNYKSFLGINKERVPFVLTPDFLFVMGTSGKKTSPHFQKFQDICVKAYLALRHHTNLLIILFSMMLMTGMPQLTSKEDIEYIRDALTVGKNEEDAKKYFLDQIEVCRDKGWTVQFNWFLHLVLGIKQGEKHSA
Procedure: Kinase Inhibition assays of p110α/p85α, p110β/p85α, p110δ/p85α and p110γ PI3K kinases including p110α/p85α, p110δ/p85α and p110γ are purchased from Invitrogen, and p110β/p85α is from Millipore. Primary screening data and IC50 values are measured using Transcreener™ KINASE Assay (Bellbrook, Catalog #3003-10K). […] It is a universal, homogenous, high throughput screening (HTS) technology using a far-red, competitive fluorescence polarization immunoassay based on the detection of ADP to monitor the activity of enzymes that catalyze group transfer reactions. Briefly, the Transcreener KINASE Assay is designed as a simple two-part, endpoint assay. […] The plate is sealed and incubated for 80 min at room temperature. Next, 25 ul ADP detection mix is added per well. The plate is sealed again and incubated for 60 min at room temperature, and then measure fluorescence polarization by Tecan Infinite F500 Reader. Data is analyzed and IC50s are generated using the add-in software for Microsoft Excel, Xlfit™ (version 2.0).

[3] = biological target: p110β/p85α (Homo sapiens, UniProt P42338); experiment: Transcreener KINASE Assay, kinase inhibition of p110β/p85α; settings: for PI3Kβ IH % @ 1 uM: 1 uM test compound; for IC50: read-out: PI3Kβ IC50
Chain of p110β/p85α (P42338 whole entry): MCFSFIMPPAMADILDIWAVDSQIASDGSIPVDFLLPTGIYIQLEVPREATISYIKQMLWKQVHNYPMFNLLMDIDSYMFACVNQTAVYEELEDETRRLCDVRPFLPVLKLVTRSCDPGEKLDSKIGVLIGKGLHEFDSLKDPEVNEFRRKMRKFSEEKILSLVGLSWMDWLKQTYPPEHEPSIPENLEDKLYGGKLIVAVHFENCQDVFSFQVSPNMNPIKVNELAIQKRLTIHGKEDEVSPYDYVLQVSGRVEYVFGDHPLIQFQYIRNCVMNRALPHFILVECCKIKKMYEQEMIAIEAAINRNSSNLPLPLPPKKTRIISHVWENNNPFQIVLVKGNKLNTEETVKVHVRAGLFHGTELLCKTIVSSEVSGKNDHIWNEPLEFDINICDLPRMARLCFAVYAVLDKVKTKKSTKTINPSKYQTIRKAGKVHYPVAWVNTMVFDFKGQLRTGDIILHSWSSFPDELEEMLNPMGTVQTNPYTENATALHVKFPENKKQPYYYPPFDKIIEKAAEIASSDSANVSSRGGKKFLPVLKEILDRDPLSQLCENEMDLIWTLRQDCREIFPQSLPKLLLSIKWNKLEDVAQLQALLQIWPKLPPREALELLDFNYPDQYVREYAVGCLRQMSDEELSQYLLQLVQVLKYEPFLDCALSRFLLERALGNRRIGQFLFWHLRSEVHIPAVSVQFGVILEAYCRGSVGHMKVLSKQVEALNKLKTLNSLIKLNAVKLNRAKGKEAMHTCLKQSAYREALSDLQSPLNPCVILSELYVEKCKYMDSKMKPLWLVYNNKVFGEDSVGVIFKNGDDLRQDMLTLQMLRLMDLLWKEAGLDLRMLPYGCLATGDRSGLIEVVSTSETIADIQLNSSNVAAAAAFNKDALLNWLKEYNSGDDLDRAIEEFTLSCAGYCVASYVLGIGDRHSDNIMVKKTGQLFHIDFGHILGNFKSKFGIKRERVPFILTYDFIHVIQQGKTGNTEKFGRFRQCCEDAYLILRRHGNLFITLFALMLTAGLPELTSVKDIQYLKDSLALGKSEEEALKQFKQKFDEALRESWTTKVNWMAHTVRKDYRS
Chain of p110β/p85α (P27986 2-724 partner): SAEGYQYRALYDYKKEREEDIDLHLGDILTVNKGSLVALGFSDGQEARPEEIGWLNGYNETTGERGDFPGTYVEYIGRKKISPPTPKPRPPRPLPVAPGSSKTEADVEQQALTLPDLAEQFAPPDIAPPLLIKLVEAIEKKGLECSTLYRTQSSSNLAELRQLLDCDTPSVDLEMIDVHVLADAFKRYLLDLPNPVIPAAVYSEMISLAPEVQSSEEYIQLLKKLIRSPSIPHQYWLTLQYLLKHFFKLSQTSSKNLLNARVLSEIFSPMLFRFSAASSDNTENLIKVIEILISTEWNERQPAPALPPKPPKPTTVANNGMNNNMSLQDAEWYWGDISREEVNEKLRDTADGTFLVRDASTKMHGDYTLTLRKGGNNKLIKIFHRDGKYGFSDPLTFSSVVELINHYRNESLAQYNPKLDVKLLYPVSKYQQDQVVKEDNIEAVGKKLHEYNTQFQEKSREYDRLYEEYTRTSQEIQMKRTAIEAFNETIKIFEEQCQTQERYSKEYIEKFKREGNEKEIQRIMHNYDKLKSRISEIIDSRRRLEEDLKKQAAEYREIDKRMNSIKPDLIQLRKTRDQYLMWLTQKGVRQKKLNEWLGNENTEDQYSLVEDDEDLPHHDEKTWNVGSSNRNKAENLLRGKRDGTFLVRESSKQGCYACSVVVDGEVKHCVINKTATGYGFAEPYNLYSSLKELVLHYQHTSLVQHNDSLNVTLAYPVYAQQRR
Procedure: as §1, §2, §3, §4

Chain of p110δ/p85α (O00329 whole entry): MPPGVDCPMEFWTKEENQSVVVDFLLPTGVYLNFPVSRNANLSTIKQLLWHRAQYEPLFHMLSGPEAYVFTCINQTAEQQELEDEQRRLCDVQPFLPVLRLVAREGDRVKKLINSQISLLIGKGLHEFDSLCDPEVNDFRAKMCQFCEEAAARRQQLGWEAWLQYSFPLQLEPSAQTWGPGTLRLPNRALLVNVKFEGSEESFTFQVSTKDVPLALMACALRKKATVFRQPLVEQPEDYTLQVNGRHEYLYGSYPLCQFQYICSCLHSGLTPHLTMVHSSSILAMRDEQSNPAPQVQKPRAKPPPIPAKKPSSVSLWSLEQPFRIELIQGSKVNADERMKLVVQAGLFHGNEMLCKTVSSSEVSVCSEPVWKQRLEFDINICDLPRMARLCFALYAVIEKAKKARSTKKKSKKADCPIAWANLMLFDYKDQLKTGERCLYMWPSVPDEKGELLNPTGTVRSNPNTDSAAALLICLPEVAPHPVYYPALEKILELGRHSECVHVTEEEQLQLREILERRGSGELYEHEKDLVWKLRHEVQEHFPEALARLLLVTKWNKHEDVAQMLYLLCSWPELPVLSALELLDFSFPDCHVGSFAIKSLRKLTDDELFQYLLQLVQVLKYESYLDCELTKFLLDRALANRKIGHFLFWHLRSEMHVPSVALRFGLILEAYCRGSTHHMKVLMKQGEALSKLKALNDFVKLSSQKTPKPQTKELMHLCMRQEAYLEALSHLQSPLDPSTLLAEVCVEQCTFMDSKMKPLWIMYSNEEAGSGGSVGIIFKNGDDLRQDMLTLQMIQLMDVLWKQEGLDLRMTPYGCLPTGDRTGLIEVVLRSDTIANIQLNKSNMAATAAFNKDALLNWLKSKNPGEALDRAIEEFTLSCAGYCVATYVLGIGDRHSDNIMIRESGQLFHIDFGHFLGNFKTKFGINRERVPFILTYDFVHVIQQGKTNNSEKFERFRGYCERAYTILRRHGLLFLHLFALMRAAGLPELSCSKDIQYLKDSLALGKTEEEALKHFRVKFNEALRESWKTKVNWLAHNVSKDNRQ
Chain of p110δ/p85α (P27986 whole entry partner): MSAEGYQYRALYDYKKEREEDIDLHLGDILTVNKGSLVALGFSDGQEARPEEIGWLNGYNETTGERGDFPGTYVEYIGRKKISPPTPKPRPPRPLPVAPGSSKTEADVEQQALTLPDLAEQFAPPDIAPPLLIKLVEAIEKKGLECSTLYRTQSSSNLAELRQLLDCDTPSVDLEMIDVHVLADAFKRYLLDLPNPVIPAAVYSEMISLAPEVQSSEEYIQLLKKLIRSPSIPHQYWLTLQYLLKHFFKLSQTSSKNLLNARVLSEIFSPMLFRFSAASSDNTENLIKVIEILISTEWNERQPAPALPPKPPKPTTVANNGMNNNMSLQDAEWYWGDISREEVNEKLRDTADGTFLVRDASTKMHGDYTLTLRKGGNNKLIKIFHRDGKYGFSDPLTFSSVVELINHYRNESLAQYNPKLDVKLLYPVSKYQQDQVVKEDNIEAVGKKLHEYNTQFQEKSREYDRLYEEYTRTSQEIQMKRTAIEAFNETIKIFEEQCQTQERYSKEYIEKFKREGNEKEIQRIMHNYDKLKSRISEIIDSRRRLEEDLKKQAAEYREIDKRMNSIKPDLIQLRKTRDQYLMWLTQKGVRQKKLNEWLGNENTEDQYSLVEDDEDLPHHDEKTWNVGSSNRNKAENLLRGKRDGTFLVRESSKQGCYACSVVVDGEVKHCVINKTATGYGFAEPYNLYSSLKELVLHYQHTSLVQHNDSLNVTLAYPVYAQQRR

Row | SMILES | PI3Kδ IH % @ 1 uM [1] [%] | IC50 [1] [nM] | PI3Kγ IH % @ 1 uM [2] [%] | IC50 [2] [nM] | PI3Kβ IH % @ 1 uM [3] [%] | IC50 [3] [nM]
1 | N#Cc1c[nH]c2ncnc(N3CC(F)(F)C[C@H]3c3nn4ccc(Cl)c4c(=O)n3-c3ccccc3)c12 [Compound 58] | >100 | 5 | 97.6 | 73 | 45.5 | –
2 | N#Cc1c[nH]c2ncnc(N3CC[C@H]3c3nn4ccc(Cl)c4c(=O)n3CC(F)F)c12 [Compound 59, (S)-4-(2-(5-chloro-3-(2,2-difluoroethyl)-4-oxo-3,4-dihydropyrrolo[2,1-f][1,2,4]triazin-2-yl)azetidin-1-yl)-7H-pyrrolo[2,3-d]pyrimidine-5-carbonitrile] | 73.6 | 392 | 45.8 | – | 34.7 | –
3 | N#Cc1c[nH]c2ncnc(N3CC[C@H]3c3nn4ccc(Cl)c4c(=O)n3Cc3ccccn3)c12 [Compound 60] | 69.0 | 325 | 29.5 | – | 3.2 | –
4 | N#Cc1c[nH]c2ncnc(N3CC[C@H]3c3nn4ccc(Cl)c4c(=O)n3Cc3cccnc3)c12 [Compound 61] | 73.9 | 309 | 45.1 | – | 7.9 | –
5 | Cn1c([C@@H]2CCCN2c2ncnc3[nH]cc(C#N)c23)nn2ccc(Cl)c2c1=O [Compound 63] | 97.7 | – | >100 | 81 | 93.7 | 61
6 | N#Cc1c[nH]c2ncnc(N3CCC[C@H]3c3nn4ccc(Cl)c4c(=O)n3CC(F)(F)F)c12 [Compound 67] | 98.1 | 7 | 61.0 | – | 71.3 | 188
7 | O=c1c2c(Cl)ccn2nc([C@@H]2CCCN2c2ncnc3[nH]cnc23)n1Cc1ccccn1 [Compound 68] | 98.5 | 28 | 73.8 | 78 | 52.1 | –
8 | CO[C@@H]1C[C@@H](c2nn3ccc(Cl)c3c(=O)n2-c2ccccc2)N(c2ncnc3[nH]cnc23)C1 [Compound 72, 5-chloro-2-((2S,4R)-4-methoxy-1-(9H-purin-6-yl)pyrrolidin-2-yl)-3-phenylpyrrolo[2,1-f][1,2,4]triazin-4(3H)-one] | 91.6 | 88 | 49.5 | – | 13.5 | –

The next lines start with the values.

Row | PI3Kδ IH % @ 1 uM [1] [%] | IC50 [1] [nM] | PI3Kγ IH % @ 1 uM [2] [%] | IC50 [2] [nM] | PI3Kβ IH % @ 1 uM [3] [%] | IC50 [3] [nM] | SMILES
9 | >100 | 1 | >100 | 9 | >100 | 31 | N#Cc1c[nH]c2ncnc(N3C[C@@H](O)C[C@H]3c3nn4ccc(Cl)c4c(=O)n3-c3ccccc3)c12 [Compound 71]
10 | >100 | 1 | >100 | – | >100 | 25 | N#Cc1c[nH]c2ncnc(N3C[C@@H](F)C[C@H]3c3nn4ccc(Cl)c4c(=O)n3-c3ccccc3)c12 [Compound 74]
11 | 99.1 | 3 | 97.3 | 8 | 69.3 | 96 | CC(Nc1ncnc2[nH]cnc12)c1cn2ccc(Cl)c2c(=O)n1-c1cccc(F)c1 (centres unmarked) [Compound 75, 3-(1-(9H-purin-6-ylamino)ethyl)-8-chloro-2-(3-fluorophenyl)pyrrolo[1,2-a]pyrazin-1(2H)-one]
